PubChem BioAssay (NCI)
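All cell lines were grown in 96-well plates and treated with compound for 48 hours. TGI is the concentration that stops growth completely.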

Assays:
Assay in all cases: NCI tumour cell line growth inhibition, 48 h
CCRF-CEM leukemia = system: CCRF-CEM leukemia
DMS 273 small cell lung = system: DMS 273 small cell lung
HCC-2998 colon = system: HCC-2998 colon
HCT-116 colon = system: HCT-116 colon
HOP-18 NSCLC = system: HOP-18 NSCLC
KM20L2 colon = system: KM20L2 colon
LXFL 529 NSCLC = system: LXFL 529 NSCLC
MALME-3M melanoma = system: MALME-3M melanoma
NCI-H23 lung = system: NCI-H23 lung
OVCAR-3 ovarian = system: OVCAR-3 ovarian
SK-MEL-28 melanoma = system: SK-MEL-28 melanoma
786-0 renal = system: 786-0 renal
MDA-N = system: MDA-N

Measured: TGI

CC(C)C(=O)CC(c1ccc(Br)cc1)N1N=C(C(C)C)CC1c1ccc(Br)cc1 (stereo unspecified)
> 100 µM: CCRF-CEM leukemia | DMS 273 small cell lung | HCC-2998 colon | HCT-116 colon | HOP-18 NSCLC | KM20L2 colon | LXFL 529 NSCLC | MALME-3M melanoma | NCI-H23 lung | OVCAR-3 ovarian | SK-MEL-28 melanoma

OC1CCSc2ccccc21 (stereo unspecified)
> 100 µM: CCRF-CEM leukemia | DMS 273 small cell lung | HCC-2998 colon | HCT-116 colon | HOP-18 NSCLC | KM20L2 colon | LXFL 529 NSCLC | MALME-3M melanoma | NCI-H23 lung | OVCAR-3 ovarian | SK-MEL-28 melanoma

COc1cc2cc[n+](C)c(Cc3ccc(Oc4cc(Cc5c6cc(OC)c(OC)cc6cc[n+]5C)ccc4OC)cc3)c2cc1OC
> 100 µM: 786-0 renal | CCRF-CEM leukemia | HCC-2998 colon | HCT-116 colon | MALME-3M melanoma | MDA-N | NCI-H23 lung | OVCAR-3 ovarian | SK-MEL-28 melanoma
